Experimental findings from BindingDB's records for doi:10.1021/jm010496a (Pfizer, 2002) are described below.

For this test, the target named is Fructose-1,6-bisphosphatase 1 (Sus scrofa) (UniProt P00636). Briefly: Concentration required for 50% Inhibition against recombinant wild type pig enzyme (F16BP) Fructose-1,6-bisphosphatase.
Chain of Fructose-1,6-bisphosphatase 1 (Sus scrofa) (P00636 whole entry, looked up): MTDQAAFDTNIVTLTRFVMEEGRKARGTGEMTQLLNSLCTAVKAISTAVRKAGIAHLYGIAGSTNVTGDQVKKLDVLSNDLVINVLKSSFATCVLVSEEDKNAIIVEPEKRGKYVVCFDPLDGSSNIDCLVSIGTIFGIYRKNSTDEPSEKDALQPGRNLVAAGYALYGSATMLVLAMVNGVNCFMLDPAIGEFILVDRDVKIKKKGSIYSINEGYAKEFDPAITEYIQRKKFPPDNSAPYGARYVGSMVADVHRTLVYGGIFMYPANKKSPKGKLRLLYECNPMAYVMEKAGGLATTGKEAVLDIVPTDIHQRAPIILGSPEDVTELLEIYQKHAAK

Turning to `CCOc1cc2nc(CN(C)C)nc(Nc3cccc(-c4csc(C(N)=O)n4)c3)c2cc1OCC` [4-[3-(2-Dimethylaminomethyl-6,7-diethoxy-quinazolin-4-ylamino)-phenyl]-thiazole-2-carboxylic acid amide], the IC50 is 9.5 µM.
